In the assay the target is Toll-like receptor 1/2 (Homo sapiens, UniProt O60603+Q15399). The experiment in a line: TBD: TBD. Format: protein-complex assay.
Chain of Toll-like receptor 1/2 (O60603 whole entry): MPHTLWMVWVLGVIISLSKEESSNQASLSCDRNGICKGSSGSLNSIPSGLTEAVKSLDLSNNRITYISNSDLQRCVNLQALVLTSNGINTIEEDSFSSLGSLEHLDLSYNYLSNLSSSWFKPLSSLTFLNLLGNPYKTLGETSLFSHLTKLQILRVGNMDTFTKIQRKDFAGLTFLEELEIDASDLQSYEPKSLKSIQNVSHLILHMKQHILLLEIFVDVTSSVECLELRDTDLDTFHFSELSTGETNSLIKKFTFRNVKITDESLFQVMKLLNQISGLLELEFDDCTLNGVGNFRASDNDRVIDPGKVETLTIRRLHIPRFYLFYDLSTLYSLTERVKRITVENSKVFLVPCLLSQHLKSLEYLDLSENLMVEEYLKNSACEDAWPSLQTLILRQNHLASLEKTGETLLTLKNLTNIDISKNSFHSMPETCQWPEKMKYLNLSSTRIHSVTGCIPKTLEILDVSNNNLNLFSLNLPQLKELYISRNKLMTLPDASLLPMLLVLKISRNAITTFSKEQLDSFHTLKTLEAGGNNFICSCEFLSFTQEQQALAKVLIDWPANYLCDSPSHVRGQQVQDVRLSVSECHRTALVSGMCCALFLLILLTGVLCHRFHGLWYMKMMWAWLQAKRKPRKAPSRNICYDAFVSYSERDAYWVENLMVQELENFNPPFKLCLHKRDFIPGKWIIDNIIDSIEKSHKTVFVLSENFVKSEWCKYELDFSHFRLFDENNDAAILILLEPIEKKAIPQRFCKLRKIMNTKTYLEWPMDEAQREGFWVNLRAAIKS
Chain of Toll-like receptor 1/2 (Q15399 whole entry): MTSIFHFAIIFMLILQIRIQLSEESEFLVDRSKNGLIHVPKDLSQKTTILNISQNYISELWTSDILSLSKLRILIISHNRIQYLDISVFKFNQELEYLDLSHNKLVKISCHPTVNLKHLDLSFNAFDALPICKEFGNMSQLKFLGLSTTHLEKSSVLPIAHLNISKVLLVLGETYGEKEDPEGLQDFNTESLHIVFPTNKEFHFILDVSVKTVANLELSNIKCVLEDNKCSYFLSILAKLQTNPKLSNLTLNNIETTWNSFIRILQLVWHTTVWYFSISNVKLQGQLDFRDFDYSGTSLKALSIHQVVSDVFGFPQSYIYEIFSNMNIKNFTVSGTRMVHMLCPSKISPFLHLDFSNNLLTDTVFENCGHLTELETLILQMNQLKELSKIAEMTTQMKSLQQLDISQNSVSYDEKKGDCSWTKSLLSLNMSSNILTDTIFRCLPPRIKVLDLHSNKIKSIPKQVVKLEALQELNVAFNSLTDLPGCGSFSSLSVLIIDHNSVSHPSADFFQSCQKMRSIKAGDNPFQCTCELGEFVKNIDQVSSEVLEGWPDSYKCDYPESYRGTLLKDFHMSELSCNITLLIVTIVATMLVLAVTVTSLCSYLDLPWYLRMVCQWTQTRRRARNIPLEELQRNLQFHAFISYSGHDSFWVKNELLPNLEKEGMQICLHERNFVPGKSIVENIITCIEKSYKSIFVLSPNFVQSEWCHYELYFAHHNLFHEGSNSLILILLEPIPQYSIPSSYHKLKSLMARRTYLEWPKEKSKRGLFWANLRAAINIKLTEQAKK
Molecule `FC(F)(F)c1ccc(-c2csc(-c3ccc(C(F)(F)F)cc3)n2)cc1` displayed an EC50 of over 1 µM.
With `CNc1ccc([N+](=O)[O-])cc1-n1cnc(-c2ccc(C(F)(F)F)cc2OCCN)c1`, the EC50 is over 1 µM.
As for `O=[N+]([O-])c1ccc(-c2nc(-c3ccc(C(F)(F)F)cc3)cs2)cc1`, the EC50 is over 1 µM.
The molecule `Oc1cc(C(F)(F)F)ccc1-c1csc(-c2ccc(C(F)(F)F)cc2)n1` came in with an EC50 of over 1 µM.
Molecule `O=[N+]([O-])c1ccc(Cl)c(-c2nc(-c3ccc(C(F)(F)F)cc3O)cs2)c1` yielded an EC50 of over 1 µM.
Molecule `CNc1ccc([N+](=O)[O-])cc1-n1cnc(-c2ccc(C(F)(F)F)cc2OS(=O)(=O)O)c1` returned a half-maximal effective concentration (EC50) of 0.0491 µM.
The figure for `COc1ccc(-c2nc(-c3ccc(C(F)(F)F)cc3O)cs2)cc1` is over 1 µM.

Usually EC50 stands for the concentration giving half of the maximal effect. The low end stands for higher potency in that assay, the high end for lower potency in that assay.

The values above are taken from ChEMBL document CHEMBL5729389, “1,4-diphenyl-1H-imidazole and 2,4-diphenylthiazole derivatives and preparation method therefor and use thereof” (2022).
